Literature values as cited in patent US20100055173A1, “RELEASE OF STATINS IN THE INTESTINE” (priority 2006, published 2010).
Like-named read-outs stand apart in the source and are kept apart here.

Experiments:
[1] = molecular target: T1, HMG-CoA reductase (Homo sapiens, UniProt P04035); details: considering the beta-hydroxy acid form as the drug
T1 sequence (P04035 1-888): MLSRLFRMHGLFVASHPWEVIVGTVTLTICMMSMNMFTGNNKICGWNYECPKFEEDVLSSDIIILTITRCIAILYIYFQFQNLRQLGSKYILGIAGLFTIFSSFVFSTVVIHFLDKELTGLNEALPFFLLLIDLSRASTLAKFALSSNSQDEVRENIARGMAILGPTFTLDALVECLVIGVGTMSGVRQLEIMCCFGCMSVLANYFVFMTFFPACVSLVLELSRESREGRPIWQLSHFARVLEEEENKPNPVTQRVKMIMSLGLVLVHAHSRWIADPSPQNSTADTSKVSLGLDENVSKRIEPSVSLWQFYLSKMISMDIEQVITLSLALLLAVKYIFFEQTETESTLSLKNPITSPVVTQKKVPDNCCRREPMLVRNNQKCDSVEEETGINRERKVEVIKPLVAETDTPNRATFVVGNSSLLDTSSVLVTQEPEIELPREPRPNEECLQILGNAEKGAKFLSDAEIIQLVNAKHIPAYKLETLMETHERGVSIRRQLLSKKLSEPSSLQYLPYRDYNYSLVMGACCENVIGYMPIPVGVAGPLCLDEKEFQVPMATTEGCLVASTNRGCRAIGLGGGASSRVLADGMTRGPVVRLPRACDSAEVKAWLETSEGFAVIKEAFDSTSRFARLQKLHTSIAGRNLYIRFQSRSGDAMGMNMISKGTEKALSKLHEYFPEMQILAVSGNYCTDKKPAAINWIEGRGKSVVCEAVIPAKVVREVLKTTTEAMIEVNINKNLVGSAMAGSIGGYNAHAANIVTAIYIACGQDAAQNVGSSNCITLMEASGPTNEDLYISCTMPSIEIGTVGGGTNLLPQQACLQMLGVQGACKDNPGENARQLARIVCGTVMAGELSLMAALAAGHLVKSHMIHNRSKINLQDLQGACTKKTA

[2] = system: plasma proteins; details: primarily to albumin

| HMG-CoA reductase activity retained [1] | Structure (SMILES) | bound to plasma proteins [2] | bound to plasma proteins ([2]; listed as Simvastatin) |
| --- | --- | --- | --- |
| ~50% | CCC(C)(C)C(=O)OC1CC(C)(O)C=C2C=CC(C)C(CCC3CC(O)CC(=O)O3)C21 (stereo not drawn) [6-beta-hydroxy simvastatin] | – | – |
| approximately 40% | CCC(C)(C)C(=O)O[C@H]1C[C@@H](CO)C=C2C=C[C@H](C)[C@H](CC[C@@H]3C[C@@H](O)CC(=O)O3)[C@H]21 [6-beta-hydroxymethyl, 6-beta-hydroxymethyl simvastatin] | – | – |
| – | CCC(C)(C)C(=O)O[C@H]1C[C@@H](C)C=C2C=C[C@H](C)[C@H](CC[C@@H](O)C[C@@H](O)CC(=O)O)[C@H]21 [open hydroxyl acid form, β-hydroxyacid-simvastatin] | 94.5% | – |
| – | CCC(C)(C)C(=O)O[C@H]1C[C@@H](C)C=C2C=C[C@H](C)[C@H](CC[C@@H]3C[C@@H](O)CC(=O)O3)[C@H]21 [simvastatin] | More than 98% | more than 95% |
